Assay results taken from US7906488B2, “Sphingolipids in treatment and prevention of steatosis and of steatosis or of hepatotoxicity and its sequelae” (Nederlandse Organisatie Voor …, priority 2004, dated 2011).

Tests used:
APOE*3Leiden mice [1] = assay: Hepatic VLDL-TG production, apoB production and VLDL composition (Triton WR1339 method); assay type: in vivo; details: 1% PS diet
Experimental: (§1) Plasma parameters: Tail blood samples were collected in EDTA-coated cups, or in paraoxon-coated capillaries to prevent lipolysis as described in Zambon et al. 1993 (Zambon et al. 1993. J. Lipid Res. 34:1021-1028). Plasma lipid parameters were determined using commercial kits for total cholesterol (C) Chol R1 from Roche Diagnostics, Mannheim, Germany), non-esterified free fatty acids (FFA) (NEFA-C; Wako chemicals, Neuss, Germany), Total triglycerides (TG) (Triglyceride GPO-Trinder; Sigma, St. Louis, Mo.), β-hydroxybutyrate (β-HB; Sigma) and ALAT (Reflotron GPT; Roche). Serum amyloid A (SAA) was measured by ELISA (Biosource, Nivelles, Belgium) and fibrinogen by sandwich ELISA, as described in Koopman et al., 2005 (Koopman et al. 2005. Fibrinol Proteol 11:19). For lipoproteins fractionation, groupwise-pooled plasma was size-fractionated by fast protein liquid chromatography (FPLC) on a Superose 6 column (Äkta; Amersham Pharmacia Biotech, Uppsala, Sweden). Fractions were assayed for total C and TG as described. Hepatic VLDL-TG production: The rate of hepatic VLDL-TG production, de novo apoB secretion, and VLDL composition were determined in overnight-fasted mice. Mice were anaesthetized with vetranquil/fentanyl/midazolam i.p., and injected i.v. with 0.1 ml PBS containing 100 μCi Tran^35S-label™ (ICN Biomedicals, Irvine, Calif.) to measure the de novo apoB synthesis. After 30 min, the animals received a Triton WR1339 injection (Tyloxapol, Sigma; 500 mg/kg body weight in 100 μl saline) to prevent systemic lipolysis of newly-secreted hepatic VLDL-TG (Aalto-Setala et al. 1992. J. Clin. Invest 90:1889-1900.27) Blood samples were drawn at 0, 15, 30, 60, and 90 min after Triton WR1339 injection and plasma TG concentrations were determined. After 90 min, the animals were sacrificed and blood was collected by retro-orbital bleeding for isolation of VLDL. VLDL composition: VLDL particles (d<1.019) were separated from other lipoproteins in plasma by density gradient ultra-centrifugation, as described in Jong et al., 1996 (Jong et al. 1996. Arterioscler. Thromb. Vasc. Biol. 16:934-940). Protein content of the VLDL fraction was determined by Lowry's assay (Lowry et al., 1951. J. Biol. Chem. 193:265-275), and TG and total C were determined as described above. Phospholipids and free cholesterol were determined using standard commercial kits (Wako Chemicals, Neuss, Germany). The ^35S-apoB content of VLDL was measured after selective precipitation of apoB with isopropanol as described elsewhere (Li et al. 1996 J. Lipid Res. 37:210-220; Pietzsch et al. 1995. Biochim. Biophys. Acta 1254:77-88). In vivo clearance of VLDL-like TG-rich particles: To determine whether 1% PS accelerates the clearance of TG-rich lipoproteins from plasma, we used radiolabeled emulsion particles as a tool. VLDL-like emulsion particles containing 200 μCi of [^3H]triolein and 20 μCi of [^14C]cholesteryl oleate were prepared and characterized as described in Rensen et al. 1997 (Rensen et al., 1997. J. Lipid Res. 38:1070-1084). Fed mice were anaesthetized as described above and laparotomy was performed. […] After taking the last liver and blood sample, the remainder of the liver, heart, spleen, hind limb muscle, and gonadal, perirenal and intestinal white adipose tissues were harvested. Lipids were extracted overnight at 60° C. in 500 μL of Solvable™, and radioactivity was counted as described in Rensen et al., 1997 (supra). RNA isolation and RT-PCR: Livers from 4 h-fasted mice fed 1% PS-containing diet or control Western-type diet for 5 weeks were removed immediately after sacrifice, flushed with cold 0.9% NaCl and snap frozen in liquid nitrogen. Total RNA was isolated as described by Chomczynski and Sacchi (Chomczynski, P. and Sacchi, N. 1987. Anal. Biochem. 162:156-159) by use of RNA-Bee™ (Campro Scientific, Berlin, Germany). cDNA synthesis was performed according to Bloks et al (Bloks et al., 2001. J. Lipid Res. 42:41-50). […]

APOE*3Leiden mice [2] = assay: In vivo clearance of VLDL-like TG-rich emulsion particles; details: 1% PS diet
Experimental: as §1, with “(supra).” for “(supra). RNA isolation and RT-PCR: Livers from 4 h-fasted mice fed 1% PS-containing diet or control Western-type diet for 5 weeks were removed immediately after sacrifice, flushed with cold 0.9% NaCl and snap frozen in liquid nitrogen. Total RNA was isolated as described by Chomczynski and Sacchi (Chomczynski, P. and Sacchi, N. 1987. Anal. Biochem. 162:156-159) by use of RNA-Bee™ (Campro Scientific, Berlin, Germany). cDNA synthesis was performed according to Bloks et al (Bloks et al., 2001. J. Lipid Res. 42:41-50).”

APOE*3Leiden mice [3] = assay: Hepatic mRNA expression levels by RT-PCR (normalized to HPRT); assay type: in vivo; set-up: key to acc1 mRNA, Change / mttp mRNA, Change / dgat1 mRNA, Change / dgat2 mRNA, Change / aco mRNA, Change / ldlr mRNA, Change / apob mRNA, Change / srebp2 mRNA, Change / pparα mRNA, Change / pparγ mRNA, Change / lxrα mRNA, Change / lxrβ mRNA, Change / fxr mRNA, Change / hmgcoAred mRNA, Change / cyp7α mRNA, Change / abca1 mRNA, Change / srebp1c mRNA, Change / fas mRNA, Change: ↑, (upregulated); ↓, (downregulated); n.s., not significant
Experimental: as §1

[4] = 1% PS diet, 5 weeks, control = 100%

**Q.** Which “VLDL particle composition: phospholipid” value (APOE*3Leiden mice [1]; 5 weeks) does the source give for `CCCCCCCCCCCCCC[C@@H](O)[C@@H](O)[C@@H](N)CO` [PS, phytosphingosine] here?
**A.** 7.57 ± 1.13 μmol/mg VLDL protein

**Q.** What about the “VLDL particle composition: total cholesterol” value (APOE*3Leiden mice [1]; 5 weeks) of the same molecule?
**A.** 11.94 ± 2.16 μmol/mg VLDL protein

**Q.** What about the “VLDL particle composition: triglycerides” value (APOE*3Leiden mice [1]; 5 weeks) of the same molecule?
**A.** 36.93 ± 7.17 μmol/mg VLDL protein

**Q.** What about the “VLDL total cholesterol, % Δ vs control” value (APOE*3Leiden mice [1]; 5 weeks) of the same molecule?
**A.** −51%

**Q.** And the “apoB production rate, % Δ vs control” value (APOE*3Leiden mice [1]; 5 weeks)?
**A.** did not differ and n.s.

**Q.** What about the VLDL-TG production rate (APOE*3Leiden mice [1]; 5 weeks, overnight-fasted) of the same molecule?
**A.** 3.63 ± 0.52 μmol TG/h

**Q.** What about the apoB production rate (APOE*3Leiden mice [1]; 5 weeks, overnight-fasted) of the same molecule?
**A.** 13.47 ± 2.45 ×10^4 dpm/ml/h

**Q.** What about the “Decrease of total C in VLDL particles vs control” value (APOE*3Leiden mice [1]; p<0.05) of the same molecule?
**A.** 51%

**Q.** What about the “Uptake of [^14C]cholesteryl oleate or [^3H]TG-derived radioactivity by peripheral muscle and adipose tissues” value (APOE*3Leiden mice [2]) of the same molecule?
**A.** No effects

**Q.** What about the “Plasma clearance of [^14C]cholesteryl oleate, t1/2” value (APOE*3Leiden mice [2]; 5 weeks, fed mice) of the same molecule?
**A.** 39.5 ± 5.3 min

**Q.** What about the “Serum clearance of [^3H]TG, t1/2” value (APOE*3Leiden mice [2]; 5 weeks, fed mice) of the same molecule?
**A.** 4.7 ± 0.3 min

**Q.** And the “[^3H]TG uptake in the liver” value (APOE*3Leiden mice [2]; at 10 min and 20 min after injection)?
**A.** increased significantly

**Q.** And the “Liver uptake of [^14C]cholesteryl oleate, change vs control” value (APOE*3Leiden mice [2]; at 20 min)?
**A.** +60%

**Q.** And the “abca1 mRNA, Change” value (APOE*3Leiden mice [3]; 1% PS diet vs control)?
**A.** n.s.

**Q.** What about the “acc1 mRNA, Change” value (APOE*3Leiden mice [3]; 1% PS diet vs control) of the same molecule?
**A.** n.s.

**Q.** What about the “aco mRNA, Change” value (APOE*3Leiden mice [3]; 1% PS diet vs control) of the same molecule?
**A.** n.s.

**Q.** What about the “apob mRNA, Change” value (APOE*3Leiden mice [3]; 1% PS diet vs control) of the same molecule?
**A.** n.s.

**Q.** What about the “cyp7α mRNA, Change” value (APOE*3Leiden mice [3]; 1% PS diet vs control) of the same molecule?
**A.** ↓

**Q.** What about the “dgat1 mRNA, Change” value (APOE*3Leiden mice [3]; 1% PS diet vs control) of the same molecule?
**A.** n.s.

**Q.** What about the “dgat2 mRNA, Change” value (APOE*3Leiden mice [3]; 1% PS diet vs control) of the same molecule?
**A.** ↑

**Q.** What about the “fas mRNA, Change” value (APOE*3Leiden mice [3]; 1% PS diet vs control) of the same molecule?
**A.** ↑

**Q.** And the “fxr mRNA, Change” value (APOE*3Leiden mice [3]; 1% PS diet vs control)?
**A.** ↑

**Q.** And the “hmgcoAred mRNA, Change” value (APOE*3Leiden mice [3]; 1% PS diet vs control)?
**A.** ↑

**Q.** And the “ldlr mRNA, Change” value (APOE*3Leiden mice [3]; 1% PS diet vs control)?
**A.** ↑

**Q.** What about the “lxrα mRNA, Change” value (APOE*3Leiden mice [3]; 1% PS diet vs control) of the same molecule?
**A.** ↑

**Q.** What about the “lxrβ mRNA, Change” value (APOE*3Leiden mice [3]; 1% PS diet vs control) of the same molecule?
**A.** ↓

**Q.** What about the “mttp mRNA, Change” value (APOE*3Leiden mice [3]; 1% PS diet vs control) of the same molecule?
**A.** ↑

**Q.** And the “pparα mRNA, Change” value (APOE*3Leiden mice [3]; 1% PS diet vs control)?
**A.** n.s.

**Q.** What about the “pparγ mRNA, Change” value (APOE*3Leiden mice [3]; 1% PS diet vs control) of the same molecule?
**A.** n.s.

**Q.** What about the “srebp1c mRNA, Change” value (APOE*3Leiden mice [3]; 1% PS diet vs control) of the same molecule?
**A.** ↑

**Q.** And the “srebp2 mRNA, Change” value (APOE*3Leiden mice [3]; 1% PS diet vs control)?
**A.** ↑

**Q.** And the “abca1 hepatic mRNA level” value (APOE*3Leiden mice [3]; [4])?
**A.** 79 ± 6%

**Q.** What about the “acc1 hepatic mRNA level” value (APOE*3Leiden mice [3]; [4]) of the same molecule?
**A.** 138 ± 29%

**Q.** What about the “aco hepatic mRNA level” value (APOE*3Leiden mice [3]; [4]) of the same molecule?
**A.** 56 ± 9%

**Q.** And the “apob hepatic mRNA level” value (APOE*3Leiden mice [3]; [4])?
**A.** 105 ± 25%

**Q.** And the “cyp7α hepatic mRNA level” value (APOE*3Leiden mice [3]; [4])?
**A.** 7 ± 2%

**Q.** What about the “dgat1 hepatic mRNA level” value (APOE*3Leiden mice [3]; [4]) of the same molecule?
**A.** 112 ± 27%

**Q.** What about the “dgat2 hepatic mRNA level” value (APOE*3Leiden mice [3]; [4]) of the same molecule?
**A.** 185 ± 23%

**Q.** And the “fas hepatic mRNA level” value (APOE*3Leiden mice [3]; [4])?
**A.** 237 ± 33%

**Q.** What about the “fxr hepatic mRNA level” value (APOE*3Leiden mice [3]; [4]) of the same molecule?
**A.** 164 ± 58%

**Q.** And the “hmgcoAred hepatic mRNA level” value (APOE*3Leiden mice [3]; [4])?
**A.** 444 ± 71%

**Q.** What about the “ldlr hepatic mRNA level” value (APOE*3Leiden mice [3]; [4]) of the same molecule?
**A.** 209 ± 14%

**Q.** And the “lxrα hepatic mRNA level” value (APOE*3Leiden mice [3]; [4])?
**A.** 162 ± 13%

**Q.** And the “lxrβ hepatic mRNA level” value (APOE*3Leiden mice [3]; [4])?
**A.** 16 ± 8%

**Q.** And the “mttp hepatic mRNA level” value (APOE*3Leiden mice [3]; [4])?
**A.** 167 ± 5%

**Q.** And the “pparα hepatic mRNA level” value (APOE*3Leiden mice [3]; [4])?
**A.** 125 ± 10%

**Q.** And the “pparγ hepatic mRNA level” value (APOE*3Leiden mice [3]; [4])?
**A.** 119 ± 10%

**Q.** What about the “srebp1c hepatic mRNA level” value (APOE*3Leiden mice [3]; [4]) of the same molecule?
**A.** 194 ± 3%

**Q.** And the “srebp2 hepatic mRNA level” value (APOE*3Leiden mice [3]; [4])?
**A.** 317 ± 33%
